We go through 3 compounds from patent US20050020646A1, “Treatment of BPH” (Pfizer Inc., priority 2003, published 2005).

The structures appear in SMILES notation.

Assay [1] concerns rat spinal cord injury model of overactive bladder. The conditions noted are these: cited from earlier work.
A further assay deals with bladder of normal rats. The conditions noted are these: cited from earlier work.
Assay [2] deals with bladder function of wild type (WT) and EP1 knockout (EP1KO) mice. Nature of the assay: Cystometry in conscious mice under intravesical instillation of PGE2. The class given is in vivo, mouse. To be noted: intravesical instillation of PGE2 (20 μM). The procedure: Animals: Age-matched female EP1 knockout (EP1KO) mice (DBA/1LacJ background) (n=13) and DBA/1LacJ wild type (WT) controls (n=12) were used for the studies. The knockout mice originated from Groton Laboratories, Pfizer Research and Development, the wild type from the Jackson Laboratories, USA. Both strains were delivered through Charles River Laboratories, UK. After arrival, the mice were housed for 6 weeks under identical conditions under a 12 hours light/dark photocycle, food and water were provided ad libitum. The experimental protocol was approved by the Animals Ethics Committee, Lund University.
The knockout and WT mice were randomly divided into 3 groups each. One third received bladder outlet obstruction (BOO) as described below, one third received sham surgery. The remaining mice served as unoperated controls.
At day 5 after the obstruction a polyethylene catheter (PE, ID 0.38 mm, OD 0.61 mm) with a small cuff was inserted in the bladder dome and secured with a purse-string suture (7-0 silk). The obstructing ligature remained in place. The catheter was tunneled subcutaneously, led out on the back of the neck, and surgically secured. Control animals received the bladder catheter 2 days prior to cystometry.
Cystometry: Two days after insertion of the catheter (7 days after creation of the obstruction), the cystometric investigation was performed without any anesthesia or restraint. The mice were placed into a metabolic cage (Gazzada, Buguggiatade, Italy). The bladder catheter was connected to a pressure transducer, which in turn was connected to a Grass® 7E Polygraph recorder. The bladder was continuously filled with saline at room temperature by means of a microinjecton pump (CMA 100, Carnegie Medicine, Solna, Sweden), at a filling speed of 25 μl/min.
The amount of voided urine was measured by means of a fluid collector, connected to a force displacement transducer (FT 03 D; Grass instrument Co., MA, USA). After a stabilization period of 60-80 minutes, in which the bladder was continuously filled, reproducible voiding patterns were achieved and recorded over a period of 30 minutes. The following parameters were measured: Micturition interval (time between 2 voids), baseline pressure (lowest pressure between 2 voids), threshold pressure (pressure immediately before micturition was initiated), micturition pressure (maximum voiding pressure), and micturition volume. Residual urine was emptied manually 3 times at the end of the cystometry and measured. Bladder capacity was calculated as the amount of saline infused into the bladder between 2 voids, plus the average amount of residual urine.
The animals were continuously observed in order to distinguish between moving artifacts and non-voiding bladder contractions. The surface of the collecting-funnel under the grid of the metabolic cage was sprayed with a thin layer of silicone.
Drugs and solutions: PGE2 (Sigma Chemical Company, St. Louis, Mo., USA). PGE2 was dissolved in ethanol, and the stock solution was stored at a concentration of 10^−2 M at −70°. The final dilution of 20 μM was made in NaCl at the day of cystometry. (Normal Krebs solution was composed as following (mM): NaCl 119, KCl 4.6, CaCl2 1.5, MgCl2 1.2, NaHCO3 15, NaH2PO4 1.2, and glucose 11).
Data analysis: All values are reported as the mean±SEM. Statistical significance was determined by Student's t-test and Bonferroni correction as appropriate. P<0.05 was required for statistical significance.

In the next assay the test system is rat bladder. The conditions noted are these: rats, topical administration; cited from earlier work.
The next assay has as its system human bladder. To be noted: human volunteers, intravesical administration; cited from earlier work.

Take `Cc1cc(Cl)ccc1S(=O)(=O)NC[C@H]1C2CCC(CC2)[C@@H]1/C=C\CCCC(=O)O` [ONO-8711]: the bladder overactivity result in assay [1] is recorded as “reduction in bladder overactivity”.
For `CC(=O)NNC(=O)N1Cc2ccccc2Oc2ccc(Cl)cc21` [SC-19220], in the assay on bladder of normal rats, the bladder capacity result is given as “increased bladder capacity”.
Turning to `CCCCC[C@H](O)/C=C/[C@H]1[C@H](O)CC(=O)[C@@H]1C/C=C\CCCC(=O)O` [PGE2, prostaglandin E2], in assay [2] (EP1 KO control mice), the bladder capacity entry is given as “no effect”, the “induction of non-voiding contractions” value is listed as “no induction of non-voiding contractions”, the micturition interval entry is recorded as “no effect” and the micturition volume result is “no effect”. For the same compound, in assay [2] (WT control mice), the bladder capacity result is listed as “decreased”, the micturition interval result is reported as “decreased”, the micturition volume result is “decreased” and the non-voiding contractions result was “Frequent non-voiding contractions of high amplitude occurred”. The “bladder activity and reflex micturition” value in the assay on rat bladder is “bladder hyperactivity and stimulation of reflex micturition”. Moreover, in the assay with human bladder, the bladder capacity result is “decreased bladder capacity” and the sensations of urgency result was “gave rise to sensations of urgency”.
